Measurements from ChEMBL document CHEMBL5728937, “Substituted tetrahydroquinolinone compounds as ROR gamma modulators” (2022).
pIC50: −log10 of the molar value.

Target: T1, Nuclear receptor ROR-gamma (Homo sapiens, UniProt P51449)
T1 sequence (P51449 whole entry): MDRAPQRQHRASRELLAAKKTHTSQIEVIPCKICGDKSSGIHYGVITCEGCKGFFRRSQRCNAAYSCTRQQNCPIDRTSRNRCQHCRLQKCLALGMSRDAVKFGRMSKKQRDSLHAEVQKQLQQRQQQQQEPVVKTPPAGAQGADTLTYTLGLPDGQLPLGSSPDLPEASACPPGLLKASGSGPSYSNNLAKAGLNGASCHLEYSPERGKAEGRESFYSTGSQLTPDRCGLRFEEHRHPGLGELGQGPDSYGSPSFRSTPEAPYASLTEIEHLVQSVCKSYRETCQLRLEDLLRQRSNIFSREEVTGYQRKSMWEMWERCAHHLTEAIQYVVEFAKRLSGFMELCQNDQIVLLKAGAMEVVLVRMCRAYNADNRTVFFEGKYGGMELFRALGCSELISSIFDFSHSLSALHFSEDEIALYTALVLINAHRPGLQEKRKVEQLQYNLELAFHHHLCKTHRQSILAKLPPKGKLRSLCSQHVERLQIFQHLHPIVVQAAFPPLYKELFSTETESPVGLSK
Assay: Radio-Ligand Binding Assay: ROR gamma radioligand binding was performed using 3H 25-Hydroxycholesterol in a competitive displacement assay using dextran charcoal method. Using 5 nM 3H 25-Hydroxycholesterol with 300 ng RORγ LBD (in house expressed in E. coli) along with the compound were incubated in the binding buffer (50 mM HEPES, pH 7.5, 150 mM NaCl, 0.01% BSA and 5 mM MgCl2) for 30 min at room temperature. Then dextran-charcoal mixture (0.5% charcoal: 0.05% dextran) was used for separation and the supernatant was read on the Perkin Elmer Trilux Microbeta counter. Dose response curves were generated for 10 compound concentrations using GraphPad Prism software Version 5 (San Diego, Calif., USA) using non-linear regression curve fit for sigmoidal dose response (variable slope).

pIC50: < 6.52
Structure (SMILES): CCS(=O)(=O)c1ccc(CC(=O)Nc2cc(C)c3c(n2)CCC(C)(c2ccc(OC)nn2)C3=O)cc1 (single isomer, unassigned)
